Experimental data published in US11084800B2 (Achillion Pharmaceuticals, Inc., priority 2017, dated 2021).

What follows are compounds tested against Human Factor D (Homo sapiens (Human), UniProt P00746) (assay: Human Factor D Assay). Conditions: Factor D inhibition, assay of Example 10; read-out: IC5 (Stars).
Assay type: biochemical
Method in brief: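 Serum-purified Factor D (80 nM final) preincubated 5 min at room temperature with compound in 50 mM Tris, 1 M NaCl, pH 7.5. Z-L-Lys-SBz and DTNB added at 100 μM each; A405 followed every 30 s for 30 min. IC50 from nonlinear regression of rates versus concentration.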

Chain of Human Factor D (P00746 26-253): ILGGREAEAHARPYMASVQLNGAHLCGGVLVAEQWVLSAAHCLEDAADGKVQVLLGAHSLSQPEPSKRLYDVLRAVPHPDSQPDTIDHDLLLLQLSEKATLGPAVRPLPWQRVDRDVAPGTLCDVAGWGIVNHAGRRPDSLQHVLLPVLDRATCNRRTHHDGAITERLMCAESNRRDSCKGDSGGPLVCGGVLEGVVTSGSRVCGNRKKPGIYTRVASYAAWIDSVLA

How did the IC50 turn out when `CC(=O)OCc1cc(-c2cnc(C)nc2)cc2c(C(C)=O)nn(CC(=O)N3[C@H](C(=O)Nc4nc(Br)ccc4C)C[C@@]4(C)C[C@@H]34)c12` [Compound 529, (3-Acetyl-1-(2-((1R,3S,5R)-3-((6-bromo-3-methylpyridin-2-yl)carbamoyl-5-methyl-2-azabicyclo[3.1.0]hexan-2-yl)-2-oxoethyl)-5-(2-methylpyrimidin-5-yl)-1H-indazol-7-yl)methyl acetate] was run?
The IC50 was under 1 µM.

For `CCc1cc(Br)nc(NC(=O)[C@@H]2C[C@@]3(C)C[C@H]3N2C(=O)Cn2nc(C(C)=O)c3cc(-c4cnc(C)nc4)ccc32)c1` [Compound 532, (1R,3S,5R)-2-(2-(3-acetyl-5-(2-methylpyrimidin-5-yl)-1H-indazol-1-yl)acetyl)-N-(6-bromo-4-ethylpyridin-2-yl)-5-methyl-2-azabicyclo[3.1.0]hexane-3-carboxamide], which IC50 is on record?
The IC50 was under 1 µM.

Which IC50 does the source give for `CC(=O)c1nn(CC(=O)N2[C@H](C(=O)NC(CCc3ccccc3)(CCc3ccccc3)C(=O)O)C[C@@]3(C)C[C@@H]23)c2c(C)cc(-c3cnc(C)nc3)cc12` [Compound 533, 2-((1R,3S,5R)-2-(2-(3-acetyl-7-methyl-5-(2-methylpyrimidin-5-yl)-1H-indazol-1-yl)acetyl)-5-methyl-2-azabicyclo[3.1.0]hexane-3-carboxamido)-2-phenethyl-4-phenylbutanoic acid] here?
Its IC50 is over 10 µM.

For `CC(=O)c1nn(CC(=O)N2[C@H](C(=O)Nc3cc(CC(N)=O)cc(Br)n3)C[C@@]3(C)C[C@@H]23)c2ccc(-c3cnc(C)nc3)cc12` [Compound 534, (1R,3S,5R)-2-(2-(3-acetyl-5-(2-methylpyrimidin-5-yl)-1H-indazol-1-yl)acetyl)-N-(4-(2-amino-2-oxoethyl)-6-bromopyridin-2-yl)-5-methyl-2-azabicyclo[3.1.0]hexane-3-carboxamide], which IC50 is on record?
Its IC50 is under 1 µM.

With `CC(=O)c1nn(CC(=O)N2[C@H](C(=O)Nc3cc(C(C)C)cc(Br)n3)C[C@@]3(C)C[C@@H]23)c2ccc(-c3cnc(C)nc3)cc12` [Compound 541, (1R,3S,5R)-2-(2-(3-acetyl-5-(2-methylpyrimidin-5-yl)-1H-indazol-1-yl)acetyl)-N-(6-bromo-4-isopropylpyridin-2-yl)-5-methyl-2-azabicyclo[3.1.0]hexane-3-carboxamide] as the compound, how does the IC50 read?
The IC50 was under 1 µM.

For `CC(=O)c1nn(CC(=O)N2[C@H](C(=O)Nc3cc(CC(C)C)cc(Br)n3)C[C@@]3(C)C[C@@H]23)c2ccc(-c3cnc(C)nc3)cc12` [Compound 542, (1R,3S,5R)-2-(2-(3-acetyl-5-(2-methylpyrimidin-5-yl)-1H-indazol-1-yl)acetyl)-N-(6-bromo-4-isobutylpyridin-2-yl)-5-methyl-2-azabicyclo[3.1.0]hexane-3-carboxamide], which IC50 is on record?
The IC50 was under 1 µM.

How did the IC50 turn out when `CC(=O)c1nn(CC(=O)N2[C@H](C(=O)Nc3cc(C#N)cc(Br)n3)C[C@@]3(C)C[C@@H]23)c2ccc(-c3cnc(C)nc3)cc12` [Compound 543, (1R,3S,5R)-2-(2-(3-acetyl-5-(2-methylpyrimidin-5-yl)-1H-indazol-1-yl)acetyl)-N-(6-bromo-4-cyanopyridin-2-yl)-5-methyl-2-azabicyclo[3.1.0]hexane-3-carboxamide] was run?
Its IC50 is under 1 µM.

`CC(=O)c1nn(CC(=O)N2[C@H](C(=O)Nc3cc(-c4nnn[nH]4)cc(Br)n3)C[C@@]3(C)C[C@@H]23)c2ccc(-c3cnc(C)nc3)cc12` [Compound 544, (1R,3S,5R)-2-(2-(3-acetyl-5-(2-methylpyrimidin-5-yl)-1H-indazol-1-yl)acetyl)-N-(6-bromo-4-(1H-tetrazol-5-yl)pyridin-2-yl)-5-methyl-2-azabicyclo[3.1.0]hexane-3-carboxamide] was tested. Which IC50 did it give?
Its IC50 is under 1 µM.

For `CC(=O)c1nn(CC(=O)N2[C@H](C(=O)Nc3cc(CCC(C)C)cc(Br)n3)C[C@@]3(C)C[C@@H]23)c2ccc(-c3cnc(C)nc3)cc12` [Compound 545, (1R,3S,5R)-2-(2-(3-acetyl-5-(2-methylpyrimidin-5-yl)-1H-indazol-1-yl)acetyl)-N-(6-bromo-4-isopentylpyridin-2-yl)-5-methyl-2-azabicyclo[3.1.0]hexane-3-carboxamide], which IC50 is on record?
The IC50 was under 1 µM.

How did the IC50 turn out when `COCc1cc(Br)nc(NC(=O)[C@@H]2C[C@@]3(C)C[C@H]3N2C(=O)Cn2nc(C(C)=O)c3cc(-c4cnc(C)nc4)ccc32)c1` [Compound 546, (1R,3S,5R)-2-(2-(3-acetyl-5-(2-methylpyrimidin-5-yl)-1H-indazol-1-yl)acetyl)-N-(6-bromo-4-(methoxymethyl)pyridin-2-yl)-5-methyl-2-azabicyclo[3.1.0]hexane-3-carboxamide] was run?
The IC50 was under 1 µM.

How did the IC50 turn out when `CC(=O)c1nn(CC(=O)N2[C@H](C(=O)Nc3cc(-c4ccccc4)cc(Br)n3)C[C@@]3(C)C[C@@H]23)c2ccc(-c3cnc(C)nc3)cc12` [Compound 547, (1R,3S,5R)-2-(2-(3-acetyl-5-(2-methylpyrimidin-5-yl)-1H-indazol-1-yl)acetyl)-N-(6-bromo-4-phenylpyridin-2-yl)-5-methyl-2-azabicyclo[3.1.0]hexane-3-carboxamide] was run?
Its IC50 is under 1 µM.

With `CC(=O)c1nn(CC(=O)N2[C@H](C(=O)Nc3cc(CCc4ccccc4)cc(Br)n3)C[C@@]3(C)C[C@@H]23)c2ccc(-c3cnc(C)nc3)cc12` [Compound 548] as the compound, how does the IC50 read?
Its IC50 is under 1 µM.

`CCCCc1cc(Br)nc(NC(=O)[C@@H]2C[C@@]3(C)C[C@H]3N2C(=O)Cn2nc(C(C)=O)c3cc(-c4cnc(C)nc4)ccc32)c1` [Compound 549, (1R,3S,5R)-2-(2-(3-acetyl-5-(2-methylpyrimidin-5-yl)-1H-indazol-1-yl)acetyl)-N-(6-bromo-4-butylpyridin-2-yl)-5-methyl-2-azabicyclo[3.1.0]hexane-3-carboxamide] was tested. Which IC50 did it give?
Its IC50 is under 1 µM.

With `CC(=O)c1nn(CC(=O)N2[C@H](C(=O)Nc3cc(C(F)(F)F)cc(Br)n3)C[C@@]3(C)C[C@@H]23)c2ccc(-c3cnc(C)nc3)cc12` [Compound 550, (1R,3S,5R)-2-(2-(3-acetyl-5-(2-methylpyrimidin-5-yl)-1H-indazol-1-yl)acetyl)-N-(6-bromo-4-(trifluoromethyl)pyridin-2-yl)-5-methyl-2-azabicyclo[3.1.0]hexane-3-carboxamide] as the compound, how does the IC50 read?
Its IC50 is under 1 µM.

Which IC50 does the source give for `CC(=O)c1nn(CC(=O)N2[C@H](C(=O)NCCC(C)(C)C)C[C@@]3(C)C[C@@H]23)c2ccc(-c3cnc(C)nc3)cc12` [Compound 552, (1R,3S,5R)-2-(2-(3-acetyl-5-(2-methylpyrimidin-5-yl)-1H-indazol-1-yl)acetyl)-N-(3,3-dimethylbutyl)-5-methyl-2-azabicyclo[3.1.0]hexane-3-carboxamide] here?
Its IC50 is under 1 µM.

With `CC(=O)c1nn(CC(=O)N2[C@H](C(=O)N[C@@H](C)c3ccccc3)C[C@@]3(C)C[C@@H]23)c2ccc(-c3cnc(C)nc3)cc12` [Compound 553, (1R,3S,5R)-2-(2-(3-acetyl-5-(2-methylpyrimidin-5-yl)-1H-indazol-1-yl)acetyl)-5-methyl-N-((S)-1-phenylethyl)-2-azabicyclo[3.1.0]hexane-3-carboxamide] as the compound, how does the IC50 read?
Its IC50 is under 1 µM.

Same assay, conditions: Table 8; Factor D 80 nM, substrate Z-L-Lys-SBz; read-out: IC50

How did the IC50 turn out when `CCCCCCCCNC(=O)[C@@H]1C[C@@]2(C)C[C@H]2N1C(=O)Cn1nc(C(C)=O)c2cc(-c3cnc(C)nc3)cc(C)c21` [Compound 528, (1R,3S,5R)-2-(2-(3-acetyl-7-methyl-5-(2-methylpyrimidin-5-yl)-1H-indazol-1-yl)acetyl)-5-methyl-N-octyl-2-azabicyclo[3.1.0]hexane-3-carboxamide] was run?
The IC50 was 1 to 10 µM.

Which IC50 does the source give for `CCCCCCCCCNC(=O)[C@@H]1C[C@@]2(C)C[C@H]2N1C(=O)Cn1nc(C(C)=O)c2cc(-c3cnc(C)nc3)cc(C)c21` [Compound 530, (1R,3S,5R)-2-(2-(3-acetyl-7-methyl-5-(2-methylpyrimidin-5-yl)-1H-indazol-1-yl)acetyl)-5-methyl-N-nonyl-2-azabicyclo[3.1.0]hexane-3-carboxamide] here?
Its IC50 is 1 to 10 µM.

For `CCCCCCCCCCNC(=O)[C@@H]1C[C@@]2(C)C[C@H]2N1C(=O)Cn1nc(C(C)=O)c2cc(-c3cnc(C)nc3)cc(C)c21` [Compound 531, (1R,3S,5R)-2-(2-(3-acetyl-7-methyl-5-(2-methylpyrimidin-5-yl)-1H-indazol-1-yl)acetyl)-N-decyl-5-methyl-2-azabicyclo[3.1.0]hexane-3-carboxamide], which IC50 is on record?
Its IC50 is over 10 µM.

`CCCCCCCCCCCCCCCC(=O)NCCCC[C@H](NC(=O)[C@H](CCC(=O)O)NC(=O)[C@H](Cc1ccc(O)cc1)NC(=O)[C@H](CCC(=O)O)NC(C)=O)C(=O)N[C@@H](CCC(=O)O)C(=O)N[C@@H](Cc1ccc(O)cc1)C(=O)N[C@@H](CCC(=O)O)C(=O)NCCOCCOCCOCCOCCOCCOCCOCCOCCOCCOCCOCCOCCOCCOCCOCCOCCOCCOCCOCCOCCOCCOCCOCCOCCC(=O)NC[C@@]12C[C@@H](C(=O)Nc3nc(Br)ccc3C)N(C(=O)Cn3nc(C(C)=O)c4cc(-c5cnc(C)nc5)cc(C)c43)[C@@H]1C2` [Compound 535] was tested. Which IC50 did it give?
Its IC50 is 1 to 10 µM.

Which IC50 does the source give for `CC(=O)c1nn(CC(=O)N2[C@H](C(=O)NCCCCc3ccccc3)C[C@@]3(C)C[C@@H]23)c2c(C)cc(-c3cnc(C)nc3)cc12` [Compound 538, (1R,3S,5R)-2-(2-(3-acetyl-7-methyl-5-(2-methylpyrimidin-5-yl)-1H-indazol-1-yl)acetyl)-5-methyl-N-(4-phenylbutyl)-2-azabicyclo[3.1.0]hexane-3-carboxamide] here?
Its IC50 is under 1 µM.

How did the IC50 turn out when `CC(=O)c1nn(CC(=O)N2[C@H](C(=O)NCCCCCc3ccccc3)C[C@@]3(C)C[C@@H]23)c2c(C)cc(-c3cnc(C)nc3)cc12` [Compound 539, (1R,3S,5R)-2-(2-(3-acetyl-7-methyl-5-(2-methylpyrimidin-5-yl)-1H-indazol-1-yl)acetyl)-5-methyl-N-(5-phenylpentyl)-2-azabicyclo[3.1.0]hexane-3-carboxamide] was run?
The IC50 was under 1 µM.

For `CC(=O)c1nn(CC(=O)N2[C@H](C(=O)NCCCCCCc3ccccc3)C[C@@]3(C)C[C@@H]23)c2c(C)cc(-c3cnc(C)nc3)cc12` [Compound 540, (1R,3S,5R)-2-(2-(3-acetyl-7-methyl-5-(2-methylpyrimidin-5-yl)-1H-indazol-1-yl)acetyl)-5-methyl-N-(6-phenylhexyl)-2-azabicyclo[3.1.0]hexane-3-carboxamide], which IC50 is on record?
The IC50 was 1 to 10 µM.
